The target of one assay is His-tagged recombinant human Gal-3 (hGal-3) (Homo sapiens (Human), UniProt P17931). In words: Gal-3 HTRF assay (hGal-3 / B-ASF). It counts as binding. The note with it: 15 nM hGal-3, 15 nM B-ASF, table after Example 20, read-out: hGal3 IC50. Here is the method:
ASSAY BUFFER Composition: 25 mM HEPES, 100 mM NaCl, 0.005% Tween 20, 0.05% BSA prepared in sterile water (all reagents from Sigma)
Positive Control: 100% DMSO (1 μl)+His-tagged hGal-3 (20 μL)+B-ASF (20 μl)+Anti-His Terbium Antibody (5 μl)+Strep d2 Antibody (5 μl).
Negative Control: 100% DMSO (1 μl)+His-tagged hGal-3 (20μL)+Anti His Terbium Antibody (5 μl)+Strep d2 Aantibody (5 μl).
PROTOCOL: The Gal-3 assays were performed in 384 white Opti plates in three replicates at room temperature with gentle shaking at 250-300 rpm From the original stocks, […] working stock concentrations of His-tagged recombinant human Gal-3 (hGal-3) and that of B-ASF were prepared. From the working stock, 20 μl of hGal-3 (15 nM) and 20 μl B-ASF (15 nM) were added to the plates. In Negative Control, only hGal-3 was added. A concentration range of 50× working stocks were prepared for the compounds in 100% DMSO. Aliquots of 1 uL of the compounds were added to the wells and pre-incubated with 20 μl hGal-3 per well for 30 minutes Then 20 μl B-ASF were added and incubated for another 1 hour. To detect the signal, 5 μ(final conc. of 1.0 nM) terbium labelled Anti-His antibody was added and incubated for 30 min followed by adding 5 μ(final conc. of 20 nM) Streptavidin d2 and incubation for another 1 hour. The assay signal was detected using HTRF screen protocol (Excitation wavelength=340 nm, emission wavelength=615 nm/665 nm) on Envision 2104 Multilabel Reader. Data analysed using Toolset and Curve Master. Results are reported in the experimental section (IC50 in μM).
On the technique in general: TR-FRET usually uses a lanthanide donor and a delayed reading to cut background.
His-tagged recombinant human Gal-3 (hGal-3), sequence (P17931 whole entry): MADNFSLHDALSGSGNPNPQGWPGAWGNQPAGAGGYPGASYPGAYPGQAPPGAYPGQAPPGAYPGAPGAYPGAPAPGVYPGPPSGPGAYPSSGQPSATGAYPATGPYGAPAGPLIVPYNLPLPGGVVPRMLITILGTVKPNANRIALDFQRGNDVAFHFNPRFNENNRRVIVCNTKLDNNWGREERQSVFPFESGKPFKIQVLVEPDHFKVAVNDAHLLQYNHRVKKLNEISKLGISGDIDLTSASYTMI
For the compound `O=C(CO[C@@H]1[C@@H](n2cc(-c3cc(F)c(F)c(F)c3)nn2)[C@@H](O)[C@@H](CO)O[C@@H]1Sc1ccc(Cl)c(Cl)c1)N1CC[C@@H](O)C1` [Example 27], the IC50 (usually the point on the concentration scale where inhibition reaches its midpoint) is 70 nM.

For `O=C(CO[C@@H]1[C@@H](n2cc(-c3cc(F)c(F)c(F)c3)nn2)[C@@H](O)[C@@H](CO)O[C@@H]1Sc1ccc(Cl)c(Cl)c1)N1CCC[C@H]1CO` [Example 29], the IC50 stood at 72 nM. Still for that read-out and setting: then `COCCN(C)C(=O)CO[C@@H]1[C@@H](n2cc(-c3cc(F)c(F)c(F)c3)nn2)[C@@H](O)[C@@H](CO)O[C@@H]1Sc1ccc(Cl)c(Cl)c1` [Example 32], with 700 nM; and `O=C(CO[C@@H]1[C@@H](n2cc(-c3cc(F)c(F)c(F)c3)nn2)[C@@H](O)[C@@H](CO)O[C@@H]1Sc1ccc(Cl)c(Cl)c1)N1CCCC(F)(F)C1` [Example 24], with 150 nM.

The same assay, now with this note: 15 nM hGal-3, 15 nM B-ASF, table after Example 46, read-out: hGal3 IC50.
As to `O=C(O)CO[C@@H]1[C@@H](n2cc(-c3ccc(Cl)cc3)nn2)[C@@H](O)[C@@H](CO)O[C@@H]1Sc1ccc(Cl)c(Cl)c1` [Example 50], the IC50 stood at 620 nM. Same read-out and setting: the value for `O=C(O)CO[C@@H]1[C@@H](n2cc(-c3cc(F)cc(F)c3)nn2)[C@@H](O)[C@@H](CO)O[C@@H]1Sc1ccc(Cl)c(Cl)c1` [Example 52] was 250 nM; that for `COc1cccc(-c2cn([C@H]3[C@@H](O)[C@@H](CO)O[C@H](Sc4ccc(Cl)c(Cl)c4)[C@@H]3OCC(=O)O)nn2)c1` [Example 48] was 740 nM.

For the compound `O=C(O)CO[C@@H]1[C@@H](n2cc(-c3cccc(F)n3)nn2)[C@@H](O)[C@@H](CO)O[C@@H]1Sc1ccc(Cl)c(Cl)c1` [Example 57], the IC50 was 310 nM. `O=C(O)CO[C@@H]1[C@@H](n2cc(-c3ccccc3F)nn2)[C@@H](O)[C@@H](CO)O[C@@H]1Sc1ccc(Cl)c(Cl)c1` [Example 51]: the IC50 is 1610 nM. With `O=C(O)CO[C@@H]1[C@@H](n2cc(-c3cc(F)ccn3)nn2)[C@@H](O)[C@@H](CO)O[C@@H]1Sc1ccc(Cl)c(Cl)c1` [Example 59], the IC50 came to 5550 nM.

Still in this assay, the particulars now being: 15 nM hGal-3, 15 nM B-ASF, three replicates, room temperature, read-out: hGal3 IC50.
`O=C(O)/C=C\O[C@@H]1[C@@H](n2cc(-c3cc(F)c(F)c(F)c3)nn2)[C@@H](O)[C@@H](CO)O[C@@H]1Sc1ccc(Cl)c(Cl)c1` [Example 40 (cis-isomer), (Z)-3-(((2R,3R,4S,5R,6R)-2-((3,4-dichlorophenyl)thio)-5-hydroxy-6-(hydroxymethyl)-4-(4-(3,4,5-trifluorophenyl)-1H-1,2,3-triazol-1-yl)tetrahydro-2H-pyran-3-yl)oxy)acrylic acid]: the IC50 was 680 nM. On to `O=C(O)CO[C@@H]1[C@@H](n2cc(-c3cc(F)c(F)c(F)c3)nn2)[C@@H](O)[C@@H](CO)O[C@@H]1[S+]([O-])c1ccc(Cl)c(Cl)c1` (single isomer, unassigned) [18 (isomer-2)], for which the IC50 stood at 100 nM. With `OC[C@H]1O[C@@H](Sc2ccc(Cl)c(Cl)c2)[C@H](F)[C@@H](n2cc(-c3cc(F)c(F)c(F)c3)nn2)[C@H]1O` (single isomer, unassigned) [Example 62 (isomer-2)], the IC50 came out at 10000 nM. `CO[C@@H]1[C@@H](n2cc(C(=O)NC3CC3)nn2)[C@@H](O)[C@@H](CO)O[C@@H]1Sc1ccc(Cl)c(Cl)c1` [Example 43, N-cyclopropyl-1-((2R,3R,4S,5R,6R)-2-((3,4-dichlorophenyl)thio)-5-hydroxy-6-(hydroxymethyl)-3-methoxytetrahydro-2H-pyran-4-yl)-1H-1,2,3-triazole-4-carboxamide]: the IC50 is 2900 nM. Take `CCO[C@@H]1[C@@H](n2cc(-c3cc(F)c(F)c(F)c3)nn2)[C@@H](O)[C@@H](CO)O[C@@H]1Sc1ccc(Cl)c(Cl)c1` [Example 4, (2R,3R,4S,5R,6R)-6-((3,4-dichlorophenyl)thio)-5-ethoxy-2-(hydroxymethyl)-4-(4-(3,4,5-trifluorophenyl)-1H-1,2,3-triazol-1-yl)tetrahydro-2H-pyran-3-ol]: the IC50 was determined as 1050 nM. On to `O=S(=O)(c1ccc(Cl)c(Cl)c1)[C@@H]1C[C@@H](n2cc(-c3cc(F)c(F)c(F)c3)nn2)[C@@H](O)[C@@H](CO)O1` [Example 61, (2R,3R,4R,6R)-6-((3,4-dichlorophenyl)sulfonyl)-2-(hydroxymethyl)-4-(4-(3,4,5-trifluorophenyl)-1H-1,2,3-triazol-1-yl)tetrahydro-2H-pyran-3-ol], for which the IC50 was 160 nM. Still for that read-out and setting: the value for `CO[C@@H]1[C@@H](n2cc(C(=O)O)nn2)[C@@H](O)[C@@H](CO)O[C@@H]1Sc1ccc(Cl)c(Cl)c1` [Example 42, 1-((2R,3R,4S,5R,6R)-2-((3,4-dichlorophenyl)thio)-5-hydroxy-6-(hydroxymethyl)-3-methoxytetrahydro-2H-pyran-4-yl)-1H-1,2,3-triazole-4-carboxylic acid] was 5000 nM; that for `O=C(CO[C@@H]1[C@@H](n2cc(-c3cc(F)c(F)c(F)c3)nn2)[C@@H](O)[C@@H](CO)O[C@@H]1[S@@+]([O-])c1ccc(Cl)c(Cl)c1)N1CCC[C@H](O)C1` [Example 36, 2-(((2R,3R,4S,5R,6R)-2-((S)-(3,4-dichlorophenyl)sulfinyl)-5-hydroxy-6-(hydroxymethyl)-4-(4-(3,4,5-trifluorophenyl)-1H-1,2,3-triazol-1-yl)tetrahydro-2H-pyran-3-yl)oxy)-1-((S)-3-hydroxypiperidin-1-yl)ethan-1-one] was 70 nM; that for `CC(O[C@@H]1[C@@H](n2cc(-c3cc(F)c(F)c(F)c3)nn2)[C@@H](O)[C@@H](CO)O[C@@H]1Sc1ccc(Cl)c(Cl)c1)C(=O)O` (single isomer, unassigned) [Example 38 (isomer-2)] was 40 nM. For the compound `N#CCO[C@@H]1[C@@H](n2cc(-c3cc(F)c(F)c(F)c3)nn2)[C@@H](O)[C@@H](CO)O[C@@H]1Sc1ccc(Cl)c(Cl)c1` [Example 15, 2-(((2R,3R,4S,5R,6R)-2-((3,4-dichlorophenyl)thio)-5-hydroxy-6-(hydroxymethyl)-4-(4-(3,4,5-trifluorophenyl)-1H-1,2,3-triazol-1-yl)tetrahydro-2H-pyran-3-yl)oxy)acetonitrile], the IC50 is 230 nM. Still for that read-out and setting: the value for `CO[C@@H]1[C@@H](n2cc(C(=O)N(C)C3CC3)nn2)[C@@H](O)[C@@H](CO)O[C@@H]1Sc1ccc(Cl)c(Cl)c1` [Example 44, N-cyclopropyl-1-((2R,3R,4S,5R,6R)-2-((3,4-dichlorophenyl)thio)-5-hydroxy-6-(hydroxymethyl)-3-methoxytetrahydro-2H-pyran-4-yl)-N-methyl-1H-1,2,3-triazole-4-carboxamide] was 5000 nM. Consider `O=C(CO[C@@H]1[C@@H](n2cc(-c3cc(F)c(F)c(F)c3)nn2)[C@@H](O)[C@@H](CO)O[C@@H]1[S@+]([O-])c1ccc(Cl)c(Cl)c1)N1CCS(=O)(=O)CC1` [Example 35, 2-(((2R,3R,4S,5R,6R)-2-((R)-(3,4-dichlorophenyl)sulfinyl)-5-hydroxy-6-(hydroxymethyl)-4-(4-(3,4,5-trifluorophenyl)-1H-1,2,3-triazol-1-yl)tetrahydro-2H-pyran-3-yl)oxy)-1-(1,1-dioxidothiomorpholino)ethan-1-one], for which the IC50 is 50 nM. `CCOC(=O)CO[C@@H]1[C@@H](n2cc(-c3cc(F)c(F)c(F)c3)nn2)[C@@H](O)[C@@H](CO)O[C@@H]1[S@@+]([O-])c1ccc(Cl)c(Cl)c1` [Example 16, ethyl 2-(((2R,3R,4S,5R,6R)-2-((S)-(3,4-dichlorophenyl)sulfinyl)-5-hydroxy-6-(hydroxymethyl)-4-(4-(3,4,5-trifluorophenyl)-1H-1,2,3-triazol-1-yl)tetrahydro-2H-pyran-3-yl)oxy)acetate]: the IC50 stood at 25 nM. For `CCOC(=O)CO[C@@H]1[C@@H](n2cc(-c3cc(F)c(F)c(F)c3)nn2)[C@@H](O)[C@@H](CO)O[C@@H]1S(=O)(=O)c1ccc(Cl)c(Cl)c1` [Example 17, ethyl 2-(((2R,3R,4S,5R,6R)-2-((3,4-dichlorophenyl)sulfonyl)-5-hydroxy-6-(hydroxymethyl)-4-(4-(3,4,5-trifluorophenyl)-1H-1,2,3-triazol-1-yl)tetrahydro-2H-pyran-3-yl)oxy)acetate], the IC50 worked out at 190 nM.

For `OC[C@H]1O[C@H](Sc2ccc(Cl)c(Cl)c2)[C@H](F)[C@@H](n2cc(-c3cc(F)c(F)c(F)c3)nn2)[C@H]1O` (single isomer, unassigned) [Example 62 (isomer-1)], the IC50 came to 2200 nM. Turning to `O=C(CO[C@@H]1[C@@H](n2cc(-c3cc(F)c(F)c(F)c3)nn2)[C@@H](O)[C@@H](CO)O[C@@H]1Sc1ccc(Cl)c(Cl)c1)N1CCC(O)CC1` [Example 20, 2-(((2R,3R,4S,5R,6R)-2-((3,4-dichlorophenyl)thio)-5-hydroxy-6-(hydroxymethyl)-4-(4-(3,4,5-trifluorophenyl)-1H-1,2,3-triazol-1-yl)tetrahydro-2H-pyran-3-yl)oxy)-1-(4-hydroxypiperidin-1-yl)ethan-1-one], the IC50 is 40 nM.

(Values after US11072626B2, “Small molecule inhibitors of Galectin-3” (BRISTOL-MYERS SQUIBB COMPANY, priority 2017, dated 2021).)
